Patent US20250051762A1, “PLATFORM USING DNA-ENCODED SMALL MOLECULE LIBRARIES AND RNA SELECTION TO DESIGN SMALL MOLECULES THAT TARGET RNA” (University of Florida Research Foundation, Incorporated, priority 2021, published 2025)

What was measured:
[1] = system: 5′GAG/3′CCC loop at pri-miR-27a's Drosha site; assay: Binding affinity by microscale thermophoresis (MST), Cy5-labeled RNA; set-up: species or system human
Procedure: (§1) Binding affinity measurements: Binding affinities were measured by microscale thermophoresis (MST), performed on a Monolith NT.115 system (NanoTemper Technologies) with Cy5-labeled RNAs. These RNAs include: the 5′GAG/3′CCC SEQ ID NO: 16 loop at pri-miR-27a's Drosha site (Sequence:/5′-Cy5/rCrUrGrArGrGrUrGrArArArCrArUrCrCrCrArG SEQ ID NO: 17; Dharmacon), a related internal loop not selected by 9. 5′CAG/3′GCC SEQ ID NO: 17 loop (Sequence:/5′-Cy5/rCrUrCrArGrGrUrGrArArArCrArUrCrCrGrArG SEQ ID NO: 16; Dharmacon), and an RNA in which the loop is mutated to a base pair (Sequence:/5-Cy5/rCrUrGrArGrGrUrGrArArArCrArUrCrUrCrArG SEQ ID NO: 16; Dharmacon).
(§2) Briefly, Cy5-labeled RNA (10 nM) was prepared in 1× Binding Buffer and folded by heating at 60° C. for 5 min and then slowly cooling to room temperature. After cooling, Tween-20 was added to a final concentration of 0.1% (v/v). Compound solutions were prepared separately in 20 μL of 1× Binding Buffer at a final concentration of 5 μM (1% (v/v) DMSO), followed by 1:1 serial dilutions in 1× Binding Buffer. RNA and compound solutions were then mixed 1:1 by volume to a total of 20 μL.
(§3) Samples were incubated for 20 min at room temperature and then loaded into premium capillaries (NanoTemper Tech, Cat #MO-K025). The following parameters were used for MST measurements: 5-20% LED power (adjusted to keep fluorescence intensity between 2000 and 8000), 80% MST power, Laser-On time=30 s, Laser-Off time=25 s. The resulting data were analyzed by calculating the change in thermophoresis as a function of compound concentration and fitted by Equation 1, a one site binding model, in NanoTemper Tech's MST analysis software to yield the dissociation constant (Kd):
(§4) Where F is the concentration of fluorescently labeled RNA; unbound and bound refer to the thermophoresis signal at completely unbound and bound state of RNA, respectively; c is the concentration of the compound; f (c) is the thermophoresis signal at compound concentration of c; and Kd is the dissociation constant.

pri-miR-27a = assay: RT-qPCR of pri- and mature miR-27a in MDA-MB-231 TNBC cells; assay type: cell-based, human; conditions: MDA-MB-231, RT-qPCR
Procedure: Cell lines. Compounds were tested in MDA-MB-231 TNBC cells (HTB-26, ATCC), LNCaP metastatic prostate cancer cells (gifted from Junli Luo lab), MCF-7 (HTB-22, ATCC) breast cancer cells, HeLa cervical adenocarcinoma cells (CCL-2, ATCC), and MCF-10a, a model of healthy breast epithelial cells (CRL-10317, ATCC).
Cell culture and compound treatment. All cells were maintained at 37° C. with 5% CO2. MDA-MB-231 and LNCaP cells were cultured in RPMI 1640 medium with L-glutamine & 25 mM HEPES (Corning) supplemented with 10% (v/v) fetal bovine serum (FBS; Sigma) and 1× (v/v) Antibiotic-Antimycotic solution (Corning). MCF-7 and HeLa cells were cultured in DMEM medium with 4.5 g/L glucose (Corning), supplemented with 10% FBS, 1× (v/v) Glutagro (Corning), and 1× (v/v) Antibiotic-Antimycotic solution. MCF10a cells were cultured in DMEM/F12 50/50 with L-glutamine & 15 mM HEPES (Corning), supplemented with 10% FBS, 20 ng/mL human epidermal growth factor (Pepro Tech Inc.), […] hydrocortisone (Pfaltz & Bauer), 100 ng/mL cholera toxin (Sigma-Aldrich), 10 μg/mL insulin (Sigma-Aldrich), and 1× (v/v) Antibiotic-Antimycotic solution.
MCF-10a cells were transfected with plasmids to express pri-miR-27a and mutant pri-miR-27a in 12- or 24-well plates with Lipofectamine 2000 per the manufacturer's protocol. For treatment of compounds, stocks were diluted in growth medium and added to cells for 48 h. The miRCURY miR-27a LNA inhibitor (QIAGEN, Cat #339121) was used as a positive control by diluting in growth medium to a final concentration of 1 nM. The miRCURY LNA Negative Control (QIAGEN, Cat #YI00199007-DDA) was used as a negative control, which has also diluted in growth medium to a final concentration of 1 nM.
Analysis of mRNA abundance: Each cell line was grown as a monolayer in 12- or 24-well plates and treated as described in “Cell culture and compound treatment”. After 48 h, the cells were lysed, and total RNA was harvested using a Zymo Quick RNA Miniprep Kit per the manufacturer's protocol. To measure the abundance of mature miRNAs, approximately 250 ng of total RNA was reverse transcribed using the High Flex Buffer provided in a miScript II RT Kit (Qiagen) per the manufacturer's protocol (10 μL total reaction volume). For pri-miRNAs and mRNA, approximately 300 ng of total RNA was reverse transcribed using a qScript cDNA synthesis kit (10 μL total reaction volume, Quanta BioSciences). For all types of RNAs, 2 μL of the RT reaction was used for qPCR using SYBR Green Master Mix and a QuantStudio™ 5 Real-Time PCR System. Relative abundance of mature miRNAs was calculated by normalizing to RNU6, and relative abundance for pri-miRNAs and mRNAs was calculated by normalizing to 18S ribosomal RNA, using the […]. (12)

[2] = system: fully paired RNA (loop mutated to a base pair); assay: Binding affinity by MST, Cy5-labeled fully paired RNA
Procedure: as §1, §2, §3, §4

5′CAG/3′GCC loop = assay: Binding affinity by MST, Cy5-labeled mutated loop RNA; set-up: species or system human; conditions: mutated loop 5′CAG/3′GCC
Procedure: as §1
Briefly, Cy5-labeled RNA (10 nM) was prepared in 1× Binding Buffer and folded by heating at 60° C. for 5 min and then slowly cooling to room temperature. […]
as §3, with “(Kd): […]” for “(Kd):”

3×3 ILL = assay: 2DCS selection of microarray-immobilized compounds with 32P-labeled 3×3 ILL, Hit-StARTS analysis of RNA-seq; assay type: binding; conditions: Zobs >4
Procedure: The interaction landscape for the ten representative DEL compounds emerging from the FACS screen were then defined by 2DCS (22). In 2DCS, small molecules are site-specifically conjugated to a microarray surface and then probed for binding to an RNA library under highly stringent conditions (FIGS. 2-B & S6). That is, the array is co-incubated with a radioactively labeled RNA library and an excess of competitor oligonucleotides that mimic regions common to all library members. […] To enable site-specific immobilization of compounds 1-10, a C-terminal alkyne handle was installed for CuAAC click (30) coupling to azide-displaying array surfaces. Installation of the alkyne was accomplished by coupling of bromoacetic acid onto rink amide resin followed by nucleophilic displacement with propargylamine prior to the synthesis of the SPDEL compounds (FIG. 2A).
All ten compounds bound to the 3×3 ILL under the highly stringent conditions described above, almost all dose-dependently (FIG. 2B). The RNAs bound to each small molecule were harvested, reverse transcribed into DNA, and sequenced by RNA-seq. The resulting data set was statistically analyzed by using High Throughput Structure-Activity Relationships Through Sequencing (Hit-StARTS) (31) in which the relative frequency of each selected RNA is compared to the frequency of that RNA in the starting library (pooled population comparison). (31) The statistical significance of the enrichment of selected RNAs is quantified by Zobs, which correlates with affinity and selectivity. (31) Here, a cut-off of Zobs >4 was employed, which was empirically determined from measured affinities via evaluation of compound 9 binding with potential RNA motifs extracted from the 2DCS (FIGS. 2-B, 13, & 14). […] This cut-off afforded, on average, 60±40 (range: 6-155) preferred, or privileged, RNA 3D folds for each compound. Compound 6 bound to largest number of RNA targets (n=155) while compound 9 bound the fewest (n=6) (FIG. 14). […]

C#CCN(CC(N)=O)C(=O)C[C@H](Cc1c[nH]c2ccccc12)NC(=O)[C@@H]1C[C@@H](NC(=O)Cn2c(=O)[nH]c3ccccc3c2=O)CN1 [Compound 10]
binding [1]: binds to none of the three RNAs | inhibition of miR-27a (comparison of 5, 7, 9, 10) (pri-miR-27a): inactive | saturable binding [2]: binds to none of the three RNAs | binding (5′CAG/3′GCC loop): binds to none of the three RNAs

C#CCN(CC(N)=O)C(=O)C(CC(C)C)N1CC[C@H](NC(=O)[C@@H]2C[C@@H](N)CN2C(=O)c2c[nH]c3ccc(Cl)cc23)C1=O (some centres unmarked) [Compound 4]
number of RNA motifs bound that are unique to the compound (3×3 ILL): 2

C#CCN(CC(N)=O)C(=O)C(CC(C)C)N1CC[C@H](NC(=O)[C@@H]2C[C@H](N)CN2C(=O)c2c[nH]c3ccc(Cl)cc23)C1=O (some centres unmarked) [Compound 3]
number of RNA motifs bound that are unique to the compound (3×3 ILL): 41

C#CCN(CC(N)=O)C(=O)C1CCN1C(=O)C1CC(N)CN1C(=O)c1ccccc1C(=O)N1CCOCC1 (centres unmarked) [Compound 5]
Kd [1]: 700 ± 100 nM | saturable binding [2]: Saturable binding was not observed
